In general, EC50 refers to the concentration needed to bring the measured effect to its halfway point.

The structures appear in SMILES notation. Bounds are passed on as bounds.

This assay addresses T1, human hepatic GK (Homo sapiens, UniProt P35557).
T1 construct: His6 (C); made in house; host or cells: E. coli
T1 sequence (P35557 1-466 isoform P35557-2): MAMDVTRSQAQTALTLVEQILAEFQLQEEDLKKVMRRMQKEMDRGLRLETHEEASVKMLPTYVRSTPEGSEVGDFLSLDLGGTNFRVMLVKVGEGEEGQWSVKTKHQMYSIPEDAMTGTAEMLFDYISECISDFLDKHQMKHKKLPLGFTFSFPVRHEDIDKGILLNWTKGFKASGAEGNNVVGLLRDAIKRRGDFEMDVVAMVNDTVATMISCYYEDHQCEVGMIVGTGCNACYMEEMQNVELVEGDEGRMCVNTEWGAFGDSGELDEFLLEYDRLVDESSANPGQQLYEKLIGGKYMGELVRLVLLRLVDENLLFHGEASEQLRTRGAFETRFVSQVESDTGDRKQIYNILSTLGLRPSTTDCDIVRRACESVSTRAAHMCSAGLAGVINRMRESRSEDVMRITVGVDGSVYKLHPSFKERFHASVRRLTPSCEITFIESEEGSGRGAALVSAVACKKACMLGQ
Nature of the assay: GK activity measurement (G6PDH-coupled NADH production). In kind it is biochemical. The following applies: GK activation; 5 mM D-glucose. As to the method:
The GK activity was determined not by direct measurement of the amount of glucose-6-phosphate produced by the enzyme reaction but by measurement of the amount of NADH produced by a […] reaction.
(Preparation of Recombinant GK)
Cloning of Human Hepatic GK and Human Pancreas GK and Acquisition of Recombinant Proteins
Based on a human hepatic GK sequence available from GeneBank (Accession Number: NM_033507) and a human pancreas GK sequence (Accession Number: NM_000162), PCR cloning was performed using Pyrobest DNA Polymerase (product of Takara Bio Inc.) with human hepatic cDNA (product of Clontech Laboratories, Inc.) and human pancreas cDNA (product of Clontech Laboratories, Inc.) used as templates. […]
The test compound was dissolved in DMSO in advance, and 2 μL of the prepared solution was added to 20 μL of a solution containing the HEPES buffer solution (pH 7.1), KCl, MgCl2, D-glucose, ATP, NAD, and dithiothreitol. […] The GK was added such that an increase in absorbance per minute in the presence of 5% DMSO was between 0.002 to 0.003. After the reaction was initiated, the increase in absorbance at 340 nm was measured for 15 minutes using a SPECTRAmax 190 microplate spectrophotometer (product of Molecular Devices Corporation), and the activity was evaluated using the increase in the first 10 minutes.

The compound `CS(=O)(=O)c1ccc(/C(=C\[C@H]2C[C@@H](F)[C@@H](F)C2)C(=O)Nc2nccs2)cc1` [Compound 1A, (E)-3-[(1α,3α,4α)-3,4-difluorocyclopentyl]-2-[4-(methylsulfonyl)phenyl]-N-(thiazol-2-yl)acrylamide] registered an EC50 not above 1000 nM.

Source of the values: US9452977B2, “Cyclopentylacrylamide derivative” (KYORIN PHARMACEUTICAL CO., LTD., priority 2008, dated 2016).
